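All cell lines were grown in 96-well plates and treated with compound for 48 hours. GI50 = concentration required for 50% inhibition of growth. The concentration for full growth arrest is given as TGI.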
Assays:
Assay in all cases: inhibition of tumour cell growth, NCI panel, 48 h
786-0 renal = system: 786-0 renal
A498 renal = system: A498 renal
A549 NSCLC = system: A549 NSCLC
ACHN renal = system: ACHN renal
BT-549 breast = system: BT-549 breast
CAKI-1 renal = system: CAKI-1 renal
CCRF-CEM leukemia = system: CCRF-CEM leukemia
COLO 205 colon = system: COLO 205 colon
DU-145 prostate = system: DU-145 prostate
EKVX NSCLC = system: EKVX NSCLC
HCC-2998 colon = system: HCC-2998 colon
HCT-116 colon = system: HCT-116 colon
HCT-15 colon = system: HCT-15 colon
HL-60(TB) leukemia = system: HL-60(TB) leukemia
HOP-62 NSCLC = system: HOP-62 NSCLC
HOP-92 NSCLC = system: HOP-92 NSCLC
HS 578T breast = system: HS 578T breast
HT29 colon = system: HT29 colon
IGROV1 ovarian = system: IGROV1 ovarian
K-562 leukemia = system: K-562 leukemia
KM12 colon = system: KM12 colon
LOX IMVI melanoma = system: LOX IMVI melanoma
M14 melanoma = system: M14 melanoma
MALME-3M melanoma = system: MALME-3M melanoma
MCF7 breast = system: MCF7 breast
MDA-MB-231 breast = system: MDA-MB-231 breast
MDA-MB-435 = system: MDA-MB-435
MDA-MB-468 breast = system: MDA-MB-468 breast
MOLT-4 leukemia = system: MOLT-4 leukemia
NCI-H226 lung = system: NCI-H226 lung
NCI-H23 lung = system: NCI-H23 lung
NCI-H460 lung = system: NCI-H460 lung
NCI-H522 lung = system: NCI-H522 lung
NCI/ADR-RES ovarian = system: NCI/ADR-RES ovarian
OVCAR-3 ovarian = system: OVCAR-3 ovarian
OVCAR-4 ovarian = system: OVCAR-4 ovarian
OVCAR-5 ovarian = system: OVCAR-5 ovarian
OVCAR-8 ovarian = system: OVCAR-8 ovarian
PC-3 prostate = system: PC-3 prostate
RPMI-8226 leukemia = system: RPMI-8226 leukemia
RXF 393 renal = system: RXF 393 renal
SF-268 CNS = system: SF-268 CNS
SF-295 CNS = system: SF-295 CNS
SF-539 CNS = system: SF-539 CNS
SK-MEL-2 melanoma = system: SK-MEL-2 melanoma
SK-MEL-28 melanoma = system: SK-MEL-28 melanoma
SK-MEL-5 melanoma = system: SK-MEL-5 melanoma
SK-OV-3 ovarian = system: SK-OV-3 ovarian
SN12C renal = system: SN12C renal
SNB-19 CNS = system: SNB-19 CNS
SR leukemia = system: SR leukemia
SW-620 colon = system: SW-620 colon
T-47D breast = system: T-47D breast
TK-10 renal = system: TK-10 renal
U251 CNS = system: U251 CNS
UACC-257 melanoma = system: UACC-257 melanoma
UACC-62 melanoma = system: UACC-62 melanoma
UO-31 renal = system: UO-31 renal

## C/C(=N\Nc1ccc(S(N)(=O)=O)cc1)c1ccc(N=Nc2c(Nc3ccccc3)[nH][nH]c2=O)cc1
786-0 renal
  GI50: 2.14 µM
  TGI: 6.27 µM
A498 renal
  GI50: 11.4 µM
  TGI: 32.8 µM
A549 NSCLC
  GI50: 19.4 µM
  TGI: > 100 µM
ACHN renal
  GI50: 5.9 µM
  TGI: 18.5 µM
BT-549 breast
  GI50: 2.83 µM
  TGI: 9.66 µM
CAKI-1 renal
  GI50: 12.5 µM
  TGI: 25.1 µM
CCRF-CEM leukemia
  GI50: 2.63 µM
  TGI: 8.92 µM
COLO 205 colon
  GI50: 3.28 µM
  TGI: 12 µM
DU-145 prostate
  GI50: 3.21 µM
  TGI: 10.4 µM
EKVX NSCLC
  GI50: 5.39 µM
  TGI: 26.9 µM
HCC-2998 colon
  GI50: 2.29 µM
  TGI: 6.08 µM
HCT-116 colon
  GI50: 3.04 µM
  TGI: 10.3 µM
HCT-15 colon
  GI50: 5.29 µM
  TGI: 18.4 µM
HL-60(TB) leukemia
  GI50: 2.86 µM
  TGI: 17.1 µM
HOP-62 NSCLC
  GI50: 2.05 µM
  TGI: 6 µM
HOP-92 NSCLC
  GI50: 1.3 µM
  TGI: 6.55 µM
HS 578T breast
  GI50: 3.31 µM
  TGI: 19.4 µM
HT29 colon
  GI50: 3.58 µM
  TGI: 11.6 µM
IGROV1 ovarian
  GI50: 4.5 µM
  TGI: 17.6 µM
K-562 leukemia
  GI50: 2.29 µM
  TGI: 6.37 µM
KM12 colon
  GI50: 2.66 µM
  TGI: 8.95 µM
LOX IMVI melanoma
  GI50: 2.13 µM
  TGI: 4.33 µM
M14 melanoma
  GI50: 2.83 µM
  TGI: 7.55 µM
MALME-3M melanoma
  GI50: 1.98 µM
  TGI: 3.85 µM
MCF7 breast
  GI50: 2.4 µM
  TGI: 7.34 µM
MDA-MB-231 breast
  GI50: 2 µM
  TGI: 4.07 µM
MDA-MB-435
  GI50: 2.07 µM
  TGI: 5.03 µM
MDA-MB-468 breast
  GI50: 1.4 µM
  TGI: 3 µM
MOLT-4 leukemia
  GI50: 1.64 µM
  TGI: 5.24 µM
NCI-H226 lung
  GI50: 3.31 µM
  TGI: 12.3 µM
NCI-H23 lung
  GI50: 2.54 µM
  TGI: 6.53 µM
NCI-H460 lung
  GI50: 3.21 µM
  TGI: 11.1 µM
NCI-H522 lung
  GI50: 2.17 µM
  TGI: 5.25 µM
NCI/ADR-RES ovarian
  GI50: > 100 µM
  TGI: > 100 µM
OVCAR-3 ovarian
  GI50: 1.87 µM
  TGI: 4.54 µM
OVCAR-4 ovarian
  GI50: 2.84 µM
  TGI: 9.26 µM
OVCAR-5 ovarian
  GI50: 11 µM
  TGI: 24.4 µM
OVCAR-8 ovarian
  GI50: 2.59 µM
  TGI: 7.81 µM
PC-3 prostate
  GI50: 3.06 µM
  TGI: 11.3 µM
RPMI-8226 leukemia
  GI50: 3.36 µM
  TGI: 28.2 µM
RXF 393 renal
  GI50: 1.1 µM
  TGI: 3.88 µM
SF-268 CNS
  GI50: 2.22 µM
  TGI: 6.23 µM
SF-295 CNS
  GI50: 3.67 µM
  TGI: 13.6 µM
SF-539 CNS
  GI50: 1.58 µM
  TGI: 3.68 µM
SK-MEL-2 melanoma
  GI50: 2.11 µM
  TGI: 4.38 µM
SK-MEL-28 melanoma
  GI50: 1.91 µM
  TGI: 3.65 µM
SK-MEL-5 melanoma
  GI50: 3.32 µM
  TGI: 12.8 µM
SK-OV-3 ovarian
  GI50: 2.34 µM
  TGI: 6.47 µM
SN12C renal
  GI50: 2.38 µM
  TGI: 6.58 µM
SNB-19 CNS
  GI50: 2.59 µM
  TGI: 8.76 µM
SR leukemia
  GI50: 1.74 µM
  TGI: 5.33 µM
SW-620 colon
  GI50: 3.18 µM
  TGI: 12.6 µM
T-47D breast
  GI50: 2.22 µM
  TGI: 5.92 µM
TK-10 renal
  GI50: 18.6 µM
  TGI: 56.8 µM
U251 CNS
  GI50: 1.88 µM
  TGI: 3.76 µM
UACC-257 melanoma
  GI50: 3.97 µM
  TGI: 16.7 µM
UACC-62 melanoma
  GI50: 1.96 µM
  TGI: 4.34 µM
UO-31 renal
  GI50: 19.4 µM
  TGI: > 100 µM
